The source of these data is US20250002507A1, “7,8-DIHYDRO-5H-1,6-NAPHTHYRIDINE DERIVATIVES AS POSITIVE ALLOSTERIC MODULATORS OF THE MUSCARINIC ACETYLCHOLINE RECEPTOR M4 FOR TREATING NEUROLOGICAL AND PSYCHIATRIC DISORDERS” (Vanderbilt University, priority 2021, published 2025).

The structures appear in SMILES notation.

This test concerns the target T1, Human M4 (Homo sapiens, UniProt P08173).
T1 construct: expressed in transfected cells
T1 sequence (P08173 1-479): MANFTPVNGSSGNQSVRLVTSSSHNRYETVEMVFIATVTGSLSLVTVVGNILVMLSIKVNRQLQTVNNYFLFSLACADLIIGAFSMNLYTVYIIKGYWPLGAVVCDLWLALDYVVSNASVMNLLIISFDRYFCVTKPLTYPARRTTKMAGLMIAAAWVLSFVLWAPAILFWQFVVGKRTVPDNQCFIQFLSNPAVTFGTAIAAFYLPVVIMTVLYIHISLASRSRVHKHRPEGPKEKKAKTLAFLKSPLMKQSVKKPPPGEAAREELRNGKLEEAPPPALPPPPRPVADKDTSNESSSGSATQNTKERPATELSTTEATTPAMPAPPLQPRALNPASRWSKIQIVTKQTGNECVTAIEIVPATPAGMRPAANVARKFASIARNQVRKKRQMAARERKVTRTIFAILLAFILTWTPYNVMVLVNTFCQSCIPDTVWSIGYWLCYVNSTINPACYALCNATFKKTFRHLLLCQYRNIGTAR
Nature of the test: mAChR M4 cell-based functional assay (calcium flux, potentiation of EC20 acetylcholine response), hM4-Gqi5 CHO-K1 cells. Conditions: for Emax at 30 µM: CHO-K1, % ACh maximum at 30 μM, human M4, read-out: Emax; for EC50: hM4-Gqi5 CHO-K1 cells, calcium flux, PAM of EC20 acetylcholine, read-out: Human M4 EC50. The method, boiled down:
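CHO-K1 cells stably expressing human M4 with chimeric Gqi5, loaded with Fluo-4 AM 50 min at 37 °C; calcium flux read by FDSS. 11-point 1:3 compound curves added, then EC20 acetylcholine at 144 s; potentiation of the EC20 response fitted by four-parameter logistic to give EC50 and Emax.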
(Calcium assays in cells follow changes in intracellular calcium, usually with a dye or a luminescent sensor.)

In general, Emax refers to the size of the effect at its maximum, as opposed to the concentration needed. As a reminder, the EC50 is the concentration that produces a half-maximal response.

For the compound `Cc1nn(C)cc1-c1cnc2c(c1)CN(c1nn3c(C)nnc3c(C)c1C)CC2` [Compound 88, 3-(1,3-dimethylpyrazol-4-yl)-6-(3,7,8-trimethyl-[1,2,4]triazolo[4,3-b]pyridazin-6-yl)-7,8-dihydro-5H-1,6-naphthyridine], the Emax at 30 µM was 97% and the EC50 stood at 195 nM.
Regarding `Cc1c(N2CCc3ncc(-c4cnn(CC5CC5)c4)cc3C2)nn2c(C)nnc2c1C` [Compound 89, 3-[1-(cyclopropylmethyl)pyrazol-4-yl]-6-(3,7,8-trimethyl-[1,2,4]triazolo[4,3-b]pyridazin-6-yl)-7,8-dihydro-5H-1,6-naphthyridine], the Emax at 30 µM stood at 91% and the EC50 was determined as 291 nM.
With `Cc1c(N2CCc3ncc(-c4cncs4)cc3C2)nn2c(C)nnc2c1C` [Compound 90, 5-[6-(3,7,8-trimethyl-[1,2,4]triazolo[4,3-b]pyridazin-6-yl)-7,8-dihydro-5H-1,6-naphthyridin-3-yl]thiazole], the Emax at 30 µM amounted to 101% and the EC50 was determined as 269 nM.
Take `Cc1c(N2CCc3ncc(Nc4cc(F)cc(F)c4F)cc3C2)nn2c(C(F)(F)F)nnc2c1C` [Compound 91, 6-[7,8-dimethyl-3-(trifluoromethyl)-[1,2,4]triazolo[4,3-b]pyridazin-6-yl]-N-(2,3,5-trifluorophenyl)-7,8-dihydro-5H-1,6-naphthyridin-3-amine]: the maximum response (Emax) at 30 µM was 106% and the EC50 was 1790 nM.
Turning to `Cc1noc(C)c1-c1cnc2c(c1)CN(c1nn3c(C(F)(F)F)nnc3c(C)c1C)CC2` [Compound 92, 4-[6-[7,8-dimethyl-3-(trifluoromethyl)-[1,2,4]triazolo[4,3-b]pyridazin-6-yl]-7,8-dihydro-5H-1,6-naphthyridin-3-yl]-3,5-dimethyl-isoxazole], the Emax at 30 µM was found to be 79% and the EC50 is 199 nM.
On to `Cc1nn(C)c(C)c1-c1cnc2c(c1)CN(c1nn3c(C(F)(F)F)nnc3c(C)c1C)CC2` [Compound 93, 6-[7,8-dimethyl-3-(trifluoromethyl)-[1,2,4]triazolo[4,3-b]pyridazin-6-yl]-3-(1,3,5-trimethylpyrazol-4-yl)-7,8-dihydro-5H-1,6-naphthyridine], for which the Emax at 30 µM worked out at 93% and the EC50 came to 173 nM.
With `Cc1nn(C)cc1-c1cnc2c(c1)CN(c1nn3c(C(F)(F)F)nnc3c(C)c1C)CC2` [Compound 94, 3-(1,3-dimethylpyrazol-4-yl)-6-[7,8-dimethyl-3-(trifluoromethyl)-[1,2,4]triazolo[4,3-b]pyridazin-6-yl]-7,8-dihydro-5H-1,6-naphthyridine], the Emax at 30 µM was 100% and the EC50 turned out to be 175 nM.
In the case of `Cc1c(N2CCc3ncc(-c4cnn(CC5CC5)c4)cc3C2)nn2c(C(F)(F)F)nnc2c1C` [Compound 95, 3-[1-(cyclopropylmethyl)pyrazol-4-yl]-6-[7,8-dimethyl-3-(trifluoromethyl)-[1,2,4]triazolo[4,3-b]pyridazin-6-yl]-7,8-dihydro-5H-1,6-naphthyridine], the Emax at 30 µM is 90% and the EC50 stood at 496 nM.
`Cc1c(N2CCc3ncc(-c4cncs4)cc3C2)nn2c(C(F)(F)F)nnc2c1C` [Compound 96, 5-[6-[7,8-dimethyl-3-(trifluoromethyl)-[1,2,4]triazolo[4,3-b]pyridazin-6-yl]-7,8-dihydro-5H-1,6-naphthyridin-3-yl]thiazole]: the Emax at 30 µM is 97% and the EC50 came to 106 nM.
As to `Cc1c(N2CCc3ncc(-c4cnn(C5CCCC5)c4)cc3C2)nn2cnnc2c1C` [Compound 97, 3-(1-cyclopentylpyrazol-4-yl)-6-(7,8-dimethyl-[1,2,4]triazolo[4,3-b]pyridazin-6-yl)-7,8-dihydro-5H-1,6-naphthyridine], the maximal effect (Emax) at 30 µM worked out at 87% and the EC50 is 198 nM.
For `Cc1c(N2CCc3ncc(-c4cnn(CC(F)(F)F)c4)cc3C2)nn2cnnc2c1C` [Compound 98, 6-(7,8-dimethyl-[1,2,4]triazolo[4,3-b]pyridazin-6-yl)-3-[1-(2,2,2-trifluoroethyl)pyrazol-4-yl]-7,8-dihydro-5H-1,6-naphthyridine], the Emax at 30 µM was 102% and the EC50 is 332 nM.
The like results for `Cc1c(N2CCc3ncc(-c4cnn(C5CCC5)c4)cc3C2)nn2cnnc2c1C` [Compound 99, 3-(1-cyclobutylpyrazol-4-yl)-6-(7,8-dimethyl-[1,2,4]triazolo[4,3-b]pyridazin-6-yl)-7,8-dihydro-5H-1,6-naphthyridine] were, in that order, 95% and 276 nM.
Regarding `CCn1cc(-c2cnc3c(c2)CN(c2nn4cnnc4c(C)c2C)CC3)cn1` [Compound 100, 6-(7,8-dimethyl-[1,2,4]triazolo[4,3-b]pyridazin-6-yl)-3-(1-ethylpyrazol-4-yl)-7,8-dihydro-5H-1,6-naphthyridine], the Emax at 30 µM was 101% and the 50% effective concentration (EC50) came to 249 nM.
For the compound `Cc1c(N2CCc3ncc(-c4cc[nH]c4)cc3C2)nn2cnnc2c1C` [Compound 101, 6-(7,8-dimethyl-[1,2,4]triazolo[4,3-b]pyridazin-6-yl)-3-(1H-pyrrol-3-yl)-7,8-dihydro-5H-1,6-naphthyridine], the Emax at 30 µM stood at 98% and the EC50 worked out at 389 nM.
As for `Cc1ccncc1-c1cnc2c(c1)CN(c1nn3cnnc3c(C)c1C)CC2` [Compound 102, 6-(7,8-dimethyl-[1,2,4]triazolo[4,3-b]pyridazin-6-yl)-3-(4-methyl-3-pyridyl)-7,8-dihydro-5H-1,6-naphthyridine], the Emax at 30 µM was determined as 94% and the EC50 was determined as 105 nM.
On to `Cc1cc2nncn2nc1N1CCc2ncc(-c3cncs3)cc2C1` [Compound 103, 5-[6-(7-methyl-[1,2,4]triazolo[4,3-b]pyridazin-6-yl)-7,8-dihydro-5H-1,6-naphthyridin-3-yl]thiazole], for which the Emax at 30 µM worked out at 97% and the EC50 worked out at 232 nM.
Turning to `Cc1cc2nncn2nc1N1CCc2ncc(-c3c(C)nn(C)c3C)cc2C1` [Compound 104, 6-(7-methyl-[1,2,4]triazolo[4,3-b]pyridazin-6-yl)-3-(1,3,5-trimethylpyrazol-4-yl)-7,8-dihydro-5H-1,6-naphthyridine], the Emax at 30 µM stood at 91% and the EC50 stood at 398 nM.
`Cc1cc2nncn2nc1N1CCc2ncc(-c3c(C)noc3C)cc2C1` [Compound 105, 3,5-dimethyl-4-[6-(7-methyl-[1,2,4]triazolo[4,3-b]pyridazin-6-yl)-7,8-dihydro-5H-1,6-naphthyridin-3-yl]isoxazole]: the Emax at 30 µM was found to be 86% and the EC50 was found to be 325 nM.
In the case of `Cc1cc2nncn2nc1N1CCc2ncc(-c3cnn(C4CCCCC4)c3)cc2C1` [Compound 106, 3-(1-cyclohexylpyrazol-4-yl)-6-(7-methyl-[1,2,4]triazolo[4,3-b]pyridazin-6-yl)-7,8-dihydro-5H-1,6-naphthyridine], the Emax at 30 µM worked out at 59% and the EC50 was 234 nM.
In the same order, the values of `Cc1cc2nccn2nc1N1CCc2ncc(-c3cncs3)cc2C1` [Compound 107, 5-[6-(7-methylimidazo[1,2-b]pyridazin-6-yl)-7,8-dihydro-5H-1,6-naphthyridin-3-yl]thiazole] are 80% and 113 nM.
Turning to `Cc1cc2nccn2nc1N1CCc2ncc(-c3cn(C)nc3C)cc2C1` [Compound 108, 3-(1,3-dimethylpyrazol-4-yl)-6-(7-methylimidazo[1,2-b]pyridazin-6-yl)-7,8-dihydro-5H-1,6-naphthyridine], the Emax at 30 µM came to 85% and the EC50 stood at 399 nM.
Turning to `Cc1cc2nccn2nc1N1CCc2ncc(-c3c(C)nn(C)c3C)cc2C1` [Compound 109, 6-(7-methylimidazo[1,2-b]pyridazin-6-yl)-3-(1,3,5-trimethylpyrazol-4-yl)-7,8-dihydro-5H-1,6-naphthyridine], the Emax at 30 µM worked out at 81% and the EC50 was 450 nM.
For the compound `Cc1cc2nccn2nc1N1CCc2ncc(-c3c(C)noc3C)cc2C1` [Compound 110, 3,5-dimethyl-4-[6-(7-methylimidazo[1,2-b]pyridazin-6-yl)-7,8-dihydro-5H-1,6-naphthyridin-3-yl]isoxazole], the Emax at 30 µM is 62% and the half-maximal effective concentration (EC50) is 236 nM.
For `Cc1cc2nccn2nc1N1CCc2ncc(-c3ccn(C)n3)cc2C1` [Compound 111, 6-(7-methylimidazo[1,2-b]pyridazin-6-yl)-3-(1-methylpyrazol-3-yl)-7,8-dihydro-5H-1,6-naphthyridine], the Emax at 30 µM turned out to be 69% and the EC50 came out at 1180 nM.
On to `Cc1c(N2CCc3ncc(-c4cnn(C)c4)cc3C2)nn2cnnc2c1C` [Compound 112, 6-(7,8-dimethyl-[1,2,4]triazolo[4,3-b]pyridazin-6-yl)-3-(1-methylpyrazol-4-yl)-7,8-dihydro-5H-1,6-naphthyridine], for which the Emax at 30 µM came out at 101% and the EC50 was determined as 124 nM.
Consider `Cc1cc2nncn2nc1N1CCc2ncc(-c3cn(C)nc3C)cc2C1` [Compound 113, 3-(1,3-dimethylpyrazol-4-yl)-6-(7-methyl-[1,2,4]triazolo[4,3-b]pyridazin-6-yl)-7,8-dihydro-5H-1,6-naphthyridine], for which the Emax at 30 µM came to 97% and the half-maximal effective concentration (EC50) is 330 nM.
